Measurements published in patent US20230000852A1, “Treatment of Dermal Cytokine Storm Syndromes” (Bridge Pharma, Inc., priority 2021, published 2023).

Assays:
[1] = tested on: IMQ-induced psoriasiform hypercytokinemia; experiment: Imiquimod (IMQ) induced psoriasis in mice; type: in vivo; conditions: for Scratching bouts: Day 6, 30 minutes observation; for Total Scores ± SEM: cumulative erythema plus scaling plus thickness; for Mean Scores of Skin Lesions: Redness / Mean Scores of Skin Lesions: Scaling / Mean Scores of Skin Lesions: Thickness: scale 0 to 4
Excerpt: The objective of this study was to assess the ability of NK to inhibit the IMQ-induced psoriasiform hypercytokinemia in mice. Topically applied IMQ is known to induce a psoriasis-like Cytokine Storm in mice by releasing a large number of cytokines, thereby causing a disease (hypercytokinemia) that is closely similar to psoriasis in human patients. Female BALB/c mice were used (8-11 weeks old; 4 animals/group). A psoriasiform skin condition was induced by repeated applications of an IMO-cream on the pre-shaved skin of the back of mice for 6 days, using […] 5% cream (IMQ-cream), at a dose of 62.5 mg per mouse, which is equal to 3.125 mg active per mouse. Starting from day 3 of dosing the skin was scored for Redness, Thickness and Scaling using a scoring system on the scale of 0 to 4, where 0=none; 1=slight; 2=moderate; 3=marked; and 4=very marked. The cumulative scores (erythema plus scaling plus thickness) served as a measure of the severity of dermal, psoriasis-like inflammation. […] A scratch bout was defined as one or more rapid back-and-forth hind paw motions directed toward and contacting the IMQ-treated area. • Group 1: (IMQ Positive Control Group): 4 mice were treated as described above. • Group 2: 4 mice were given NK 10 mg/kg/day, PO, starting 3 days before the first application of IMQ. • Group 3: same treatment as Group 2, but the dose of NK was 20 mg/kg/day. • Group 4: same treatment as Group 3, but the dose of NK was 30 mg/kg/day. ANOVA (Dunnett's Method)-positive control (IMQ) vs test groups. The methodology used here was the van der Fits (2009) method with minor modifications.

IL-13 = experiment: PHA-induced IL-13 release from human leucocytes (buffy coats); type: cell-based; conditions: Leucocyte, 30 min pre-incubation, PHA 5 μg/ml 16 hours
Procedure: (§1) The objective of this study was to assess the ability of norketotifen to inhibit cytokine release from stimulated human leucocytes.
(§2) The study was conducted in two phases. The first phase included optimization of the test methodology and including dose-range finding studies, using buffy coats from 3 human donors, stimulated with phytohemagglutinin (PHA). Following optimization of the test conditions, a final protocol was issued. In the ensuing Main Study, white blood cells (buffy coats) from 5 healthy human donors were stimulated with PHA, 5 μg/ml. The concentrations of the test article and the duration of exposure were optimized to obtain acceptable dose-response ratios. Thus, the inhibitory effects of three concentrations of NK and one concentration of ketotifen were evaluated in the Main Study. The buffy coats containing white blood cells from 5 male human donors were resuspended in assay media and were pre-incubated for 30 min with either vehicle/saline, ketotifen 4.3 μg/ml (10 μM) and norketotifen 0.4 μg/ml, 4.1 μg/ml and 41 μg/ml (1.0; 10 and 100 μM). Following these preincubations, the white blood cells were stimulated for 16 hours with PHA, 5 μg/ml. The cell system supernatants were then harvested and stored frozen pending analyses.
(§3) The concentration of the test articles had to be high in this ex vivo study since the test kit used a high concentration of the agonist PHA (5 μg/ml) and a long exposure time (16 hrs).

IL-8 = experiment: PHA-induced IL-8 release from human leucocytes (buffy coats); type: cell-based; conditions: Leucocyte, 30 min pre-incubation, PHA 5 μg/ml 16 hours
Procedure: as §1, §2, §3

MIP-1a = experiment: PHA-induced MIP-1a release from human leucocytes (buffy coats); type: cell-based; conditions: Leucocyte, 30 min pre-incubation, PHA 5 μg/ml 16 hours
Procedure: as §1, §2, §3

sedation = conditions: dogs, oral; U.S. Pat. No. 8,557,846; cited from earlier work
[2] = tested on: IL31-induced (SC) pruritus; experiment: IL-31-induced pruritus in mice; type: in vivo; conditions: at the dose tested
Procedure: To determine if NK inhibits IL31-induced pruritus in mice. Studies have now been performed, using murine IL31 as a pruritogen. Mice were dosed orally with a test article exactly 60 minutes before murine IL31 at a dose of 1.0 μg/30 gram body weight was injected subcutaneously into a previously depilated area on the rostral part of the back of mice. IL31 was dissolved in phosphate buffered saline (PBS) with 0.1% bovine serum albumin (BSA). The injected volume was 0.1 ml/mouse. The bouts of scratching were counted for 120 min, starting 30 min after the injection of IL31. The bouts of scratching were counted by trained laboratory personnel who were unaware of the pretreatment of the animals. Oclacitinib (Apoquel®) is a Janus kinase inhibitor that is the worldwide market leader for oral treatment of atopic dermatitis in dogs.

IL-6 = experiment: PHA-induced IL-6 release from human leucocytes (buffy coats); type: cell-based; conditions: Leucocyte, 30 min pre-incubation, PHA 5 μg/ml 16 hours
Procedure: as §1, §2, §3

IL-1β = experiment: PHA-induced IL-1β release from human leucocytes (buffy coats); type: cell-based; conditions: Leucocyte, 30 min pre-incubation, PHA 5 μg/ml 16 hours
Procedure: as §1, §2, §3

Question: For `O=C1Cc2ccccc2C(=C2CCNCC2)c2ccsc21` (racemic) [NK, norketotifen], which Scratching bouts ([1]; NK 10 mg/kg/day PO from 3 days before IMQ) is on record?
Answer: 7.0

Question: And the “Total Scores ± SEM” value ([1]; NK 10 mg/kg/day oral)?
Answer: 1.5 ± 0.65

Question: And the “Mean Scores of Skin Lesions: Redness” value ([1]; NK 10 mg/kg/day oral)?
Answer: 0.75

Question: What about the “Mean Scores of Skin Lesions: Scaling” value ([1]; NK 10 mg/kg/day oral) of the same molecule?
Answer: 0.25

Question: What about the “Mean Scores of Skin Lesions: Thickness” value ([1]; NK 10 mg/kg/day oral) of the same molecule?
Answer: 0.5

Question: What about the Scratching bouts ([1]; NK 20 mg/kg/day PO from 3 days before IMQ) of the same molecule?
Answer: 4.25

Question: And the “Total Scores ± SEM” value ([1]; NK 20 mg/kg/day oral)?
Answer: 0.5 ± 0.29

Question: What about the “Mean Scores of Skin Lesions: Redness” value ([1]; NK 20 mg/kg/day oral) of the same molecule?
Answer: 0.5

Question: What about the “Mean Scores of Skin Lesions: Scaling” value ([1]; NK 20 mg/kg/day oral) of the same molecule?
Answer: 0

Question: And the “Mean Scores of Skin Lesions: Thickness” value ([1]; NK 20 mg/kg/day oral)?
Answer: 0

Question: What about the “Total Scores ± SEM” value ([1]; NK 30 mg/kg/day oral) of the same molecule?
Answer: 0.33 ± 0.33

Question: And the “Mean Scores of Skin Lesions: Redness” value ([1]; NK 30 mg/kg/day oral)?
Answer: 0.33

Question: And the “Mean Scores of Skin Lesions: Scaling” value ([1]; NK 30 mg/kg/day oral)?
Answer: 0

Question: What about the “Mean Scores of Skin Lesions: Thickness” value ([1]; NK 30 mg/kg/day oral) of the same molecule?
Answer: 0

Question: And the “Inhibition of psoriasis-related cytokine storm (in words)” value ([1]; antipruritic activity and redness, thickness, scaling scores)?
Answer: almost completely inhibited

Question: What about the “Effect on scratching in mice (in words)” value ([1]; oral NK, not statistically significant (p>0.05)) of the same molecule?
Answer: dose-dependent effect

Question: What about the inhibition at 1 µM (IL-13; 1 uM) of the same molecule?
Answer: 0%

Question: And the inhibition at 10 µM (IL-13; 10 uM)?
Answer: 34.5%

Question: And the inhibition at 100 µM (IL-13; 100 uM)?
Answer: 74.2%

Question: What about the inhibition at 1 µM (IL-8; 1 uM) of the same molecule?
Answer: 10.3%

Question: What about the inhibition at 10 µM (IL-8; 10 uM) of the same molecule?
Answer: 34.4%

Question: What about the inhibition at 100 µM (IL-8; 100 uM) of the same molecule?
Answer: 78.3%

Question: And the inhibition at 1 µM (MIP-1a; 1 uM)?
Answer: 9.53%

Question: And the inhibition at 10 µM (MIP-1a; 10 uM)?
Answer: 25.9%

Question: And the inhibition at 100 µM (MIP-1a; 100 uM)?
Answer: 91%

Question: What about the Sedative side effects (sedation) of the same molecule?
Answer: free from sedative side effects

Question: What about the “Effect on IL-31-induced pruritus (in words)” value [2] of the same molecule?
Answer: decreased IL-31-induced pruritus

Question: And the inhibition at 1 µM (IL-6; 1 uM)?
Answer: 0%

Question: And the inhibition at 10 µM (IL-6; 10 uM)?
Answer: 33.1%

Question: And the inhibition at 100 µM (IL-6; 100 uM)?
Answer: 88.2%

Question: And the inhibition at 1 µM (IL-1β; 1 uM)?
Answer: 0%

Question: What about the inhibition at 10 µM (IL-1β; 10 uM) of the same molecule?
Answer: 16.2%

Question: What about the inhibition at 100 µM (IL-1β; 100 uM) of the same molecule?
Answer: 57%
